Our source for the IC50 values is publication PMC6151550, “Inhibitory Effect of Selaginellins from Selaginella tamariscina (Beauv.) Spring against Cytochrome P450 and Uridine 5′-Diphosphoglucuronosyltransferase Isoforms on Human Liver Microsomes” (Molecules : A Journal of Synthetic Chemistry and Natural …, 2017).

Read-outs that look alike come from different tables or passages of the source. Where only a bound is given, the exact number is not on record here.

The term IC50 denotes the concentration needed to halve the response being measured.

Assay type in all cases: in vitro ADME
The target in one test is T1, CYP1A2 (Homo sapiens, UniProt P05177).
T1 construct: the incubation mixtures containing pooled HLMs (0.25 mg/mL, H2630, Xenotech); tissue Xenotech H2630; host or cells: pooled human liver microsomes
T1 sequence (P05177 1-516): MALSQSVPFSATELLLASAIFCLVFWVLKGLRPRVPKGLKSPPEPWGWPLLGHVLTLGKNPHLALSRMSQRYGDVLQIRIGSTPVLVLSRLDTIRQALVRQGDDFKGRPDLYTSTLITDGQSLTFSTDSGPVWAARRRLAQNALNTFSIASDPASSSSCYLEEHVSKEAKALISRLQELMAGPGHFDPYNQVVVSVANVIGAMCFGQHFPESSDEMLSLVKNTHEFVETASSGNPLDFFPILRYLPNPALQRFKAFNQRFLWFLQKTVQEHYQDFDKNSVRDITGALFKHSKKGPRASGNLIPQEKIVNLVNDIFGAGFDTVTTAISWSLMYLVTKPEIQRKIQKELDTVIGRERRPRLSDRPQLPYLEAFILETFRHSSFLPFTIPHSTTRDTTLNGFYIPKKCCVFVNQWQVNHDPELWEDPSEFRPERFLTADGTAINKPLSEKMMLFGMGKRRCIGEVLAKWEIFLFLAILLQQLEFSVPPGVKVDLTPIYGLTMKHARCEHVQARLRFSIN
Briefly: CYP1A2 inhibition (phenacetin O-deethylase) in human liver microsomes, substrate cocktail LC-MS/MS. As for the experimental part: (§1) The inhibitory effects of two selaginellins on the metabolism of ten P450 probe substrates were evaluated using previously reported method with minor modification. Phenacetin O-deethylase, coumarin 7-hydroxylase, bupropion 4-hydroxylase, amodiaquine N-deethylase, tolbutamide 4-hydroxylase, omeprazole 5-hydroxylase, dextromethorphan O-demethylase, chlorzoxazone 6-hydroxylase and midazolam 1′-hydroxylase activities were determined as probe activities for CYP1A2, CYP2A6, CYP2B6, CYP2C8, CYP2C9, CYP2C19, CYP2D6, CYP2E1 and […], respectively, using substrate cocktail incubation and tandem mass spectrometry (Table 2). Selaginellins were dissolved in methanol. The final concentrations of organic solvent (methanol) for the cocktail incubation conditions in all experiments were 1.0% (v/v). In brief, the incubation mixtures containing pooled HLMs (0.25 mg/mL, H2630, Xenotech), P450 probe substrate cocktail, and inhibitor (0, 0.5, 2, 5, 20 and 50 μM) were preincubated at 37 °C for 5 min. […] After mixing and centrifugation, aliquots were analyzed by liquid chromatography-tandem mass spectrometry (LC-MS/MS) as previous described. The CYP2J2 inhibitory effects of two selaginellins were also evaluated in pooled HLMs using previously reported method. […]
Background: Microsomes from liver hold many membrane-bound enzymes, among them those of drug oxidation.

In a further test the target is T2, CYP2C9 (Homo sapiens, UniProt P11712).
T2 construct: the incubation mixtures containing pooled HLMs (0.25 mg/mL, H2630, Xenotech); tissue Xenotech H2630; host or cells: pooled human liver microsomes
T2 sequence (P11712 whole entry): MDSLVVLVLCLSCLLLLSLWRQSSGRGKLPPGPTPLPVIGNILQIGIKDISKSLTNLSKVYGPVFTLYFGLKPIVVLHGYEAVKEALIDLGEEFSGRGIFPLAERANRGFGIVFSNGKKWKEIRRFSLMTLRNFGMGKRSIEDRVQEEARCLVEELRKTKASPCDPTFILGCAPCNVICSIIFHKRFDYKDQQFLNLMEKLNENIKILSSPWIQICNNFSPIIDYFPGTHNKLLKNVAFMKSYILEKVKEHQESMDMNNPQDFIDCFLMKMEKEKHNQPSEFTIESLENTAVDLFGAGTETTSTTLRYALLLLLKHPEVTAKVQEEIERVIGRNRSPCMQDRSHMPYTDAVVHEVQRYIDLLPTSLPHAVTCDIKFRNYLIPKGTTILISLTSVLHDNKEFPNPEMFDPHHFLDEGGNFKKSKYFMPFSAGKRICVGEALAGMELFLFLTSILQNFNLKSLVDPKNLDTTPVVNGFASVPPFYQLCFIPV
Put plainly: CYP2C9 inhibition (tolbutamide 4-hydroxylase) in human liver microsomes, substrate cocktail LC-MS/MS. The note with it: IC50 P450 isoform 2C9, pooled HLMs 0.25 mg/mL, tolbutamide 100 μM. As for the experimental part:
as §1

For another test, the target named is T3, CYP2E1 (Homo sapiens, UniProt P05181).
T3 construct: the incubation mixtures containing pooled HLMs (0.25 mg/mL, H2630, Xenotech); tissue Xenotech H2630; host or cells: pooled human liver microsomes
T3 sequence (P05181 whole entry): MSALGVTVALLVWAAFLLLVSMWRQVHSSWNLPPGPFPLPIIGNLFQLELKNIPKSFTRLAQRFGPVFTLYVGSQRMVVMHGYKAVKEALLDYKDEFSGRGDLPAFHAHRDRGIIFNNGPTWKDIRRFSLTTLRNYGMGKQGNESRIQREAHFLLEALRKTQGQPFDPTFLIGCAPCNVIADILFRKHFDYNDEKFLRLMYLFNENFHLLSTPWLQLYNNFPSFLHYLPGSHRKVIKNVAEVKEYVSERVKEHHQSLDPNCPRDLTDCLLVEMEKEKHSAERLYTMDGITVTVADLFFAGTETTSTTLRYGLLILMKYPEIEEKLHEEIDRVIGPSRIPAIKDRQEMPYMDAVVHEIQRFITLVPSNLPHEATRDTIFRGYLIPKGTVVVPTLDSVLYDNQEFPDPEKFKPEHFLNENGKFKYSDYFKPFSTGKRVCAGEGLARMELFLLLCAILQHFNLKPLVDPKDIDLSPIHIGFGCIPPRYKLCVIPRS
Put plainly: CYP2E1 inhibition (chlorzoxazone 6-hydroxylase) in human liver microsomes, substrate cocktail LC-MS/MS. As for the experimental part:
as §1

The next test deals with T4, UGT2B7 (Homo sapiens, UniProt P16662).
T4 construct: from tissue; host or cells: human liver microsomes
T4 sequence (P16662 24-529): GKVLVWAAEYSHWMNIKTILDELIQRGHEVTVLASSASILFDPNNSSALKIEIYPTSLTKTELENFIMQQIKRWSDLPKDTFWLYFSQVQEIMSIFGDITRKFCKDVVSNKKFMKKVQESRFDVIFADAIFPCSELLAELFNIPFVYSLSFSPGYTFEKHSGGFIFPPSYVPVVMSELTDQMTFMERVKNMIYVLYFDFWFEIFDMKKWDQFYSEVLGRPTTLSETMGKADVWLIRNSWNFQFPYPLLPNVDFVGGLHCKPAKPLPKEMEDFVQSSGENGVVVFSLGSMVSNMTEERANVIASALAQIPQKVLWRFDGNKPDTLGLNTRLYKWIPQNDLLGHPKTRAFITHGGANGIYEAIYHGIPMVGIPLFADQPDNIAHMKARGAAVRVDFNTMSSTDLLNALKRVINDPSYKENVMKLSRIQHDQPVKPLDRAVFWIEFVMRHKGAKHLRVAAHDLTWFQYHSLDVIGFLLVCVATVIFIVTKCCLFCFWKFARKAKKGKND
Put plainly: UGT2B7 inhibition (naloxone glucuronidation) in human liver microsomes, cocktail LC-MS/MS. As for the experimental part:
The inhibitory effects of two selaginellins on the metabolism of six UGT probe substrates were evaluated using previously reported method with minor modification. In brief, HLMs (0.25 mg/mL) were activated by incubation in the presence of alamethicin (25 μg/mL) for 15 min on ice. After the addition of UGT isoform-selective substrates and selaginellins (0, 0.5, 2, 5, 20 and 50 μM) the final concentrations of organic solvent (methanol) for the cocktail incubation conditions were 1.0% (v/v). The incubation reaction mixtures were pre-incubated for 5 min. The reaction was initiated by the addition of 5 mM UDPGA and further incubated for 60 min. All reactions were terminated by adding ice-cold acetonitrile containing estrone glucuronide (IS). After mixing and centrifugation, aliquots were injected into a LC-MS/MS as described previously (Table 2). All microsomal incubations were performed in triplicate.
The IC50 values (concentration of the inhibitor causing 50% inhibition of the original enzyme activity) were calculated using WinNonlin software (Pharsight, Mountain View, CA, USA): percentage of control activity = 100 × [1 − (I/(I + IC50))], where I is the inhibitor concentration, and IC50 is the inflection point on the curve.

In the case of `COc1ccc(C(=C2C=CC(=O)C=C2)c2c(-c3ccc(O)cc3)ccc(CO)c2C#Cc2ccc(O)cc2)cc1` [Selaginellin M], the IC50 at CYP1A2 (pooled HLMs 0.25 mg/mL, phenacetin 100 μM, read-out: IC50 P450 isoform 1A2) is greater than 50 µM; on CYP2C9 it was 3900 nM; against CYP2E1, greater than 50 µM; against UGT2B7, 10.4 µM.

Take `O=C1C=CC(=C(c2ccc(O)cc2)c2c(-c3ccc(O)cc3)ccc(CO)c2C#Cc2ccc(O)cc2)C=C1` [Selaginellin]: the IC50 came to 36.4 µM against CYP1A2, 1200 nM against CYP2C9, 38.5 µM against CYP2E1 and 15.6 µM at UGT2B7.
